Starred links: 1 amine or outer side, 2 acyl side, 3 side chain; linkers in the order of their positions; H or OH if unused. Positions of bridges follow the written chain, without caps; N, C: chain ends. Non-standard residues stand in square brackets, D forms with d. Residues, ends and D or L forms follow the SMILES beside them. N(3-phenylpropyl)Gly = O=C(O)CNCCCc1ccccc1; Phe(4-Et) = CCc1ccc(C[C@H](N)C(=O)O)cc1; X1 = O=C(CN(Cc1ccc(F)c(F)c1)[*:1])[*:2]; X4 = Cc1ccc(CCN(CC(=O)[*:2])[*:1])cc1; cisHyp = O=C(O)[C@@H]1C[C@H](O)CN1; X2 = O=C(CCC[*:2])[*:1]; Mpa = O=C(O)CCS
Columns and labels:
[1] = biological target: human vasopressin (hV2) receptor (Homo sapiens, UniProt P30518); experiment: luciferase-based transcriptional reporter gene assay expressing the human vasopressin (hV2) receptor; conditions: for Selectivity hV2/hOT: EC50 ratio hV2/hOT
Protocol: (§1) Agonist activity of compounds on the hOT receptor was determined in a transcriptional reporter gene assay by transiently transfecting a hOT receptor expression DNA into a Chinese Hamster Ovary (CHO) cell line in concert with a reporter DNA containing intracellular calcium responsive promoter elements regulating expression of firefly luciferase.
(§2) The EC50 value given is the geometric mean expressed in nanomol/l (nM). Selectivity values are given as EC50 ratios.

hOT receptor = biological target: T1, hOT receptor (Homo sapiens, UniProt P30559); experiment: transcriptional reporter gene assay (luciferase), agonist activity on hOT receptor in transfected CHO cells
T1 sequence (P30559 1-389): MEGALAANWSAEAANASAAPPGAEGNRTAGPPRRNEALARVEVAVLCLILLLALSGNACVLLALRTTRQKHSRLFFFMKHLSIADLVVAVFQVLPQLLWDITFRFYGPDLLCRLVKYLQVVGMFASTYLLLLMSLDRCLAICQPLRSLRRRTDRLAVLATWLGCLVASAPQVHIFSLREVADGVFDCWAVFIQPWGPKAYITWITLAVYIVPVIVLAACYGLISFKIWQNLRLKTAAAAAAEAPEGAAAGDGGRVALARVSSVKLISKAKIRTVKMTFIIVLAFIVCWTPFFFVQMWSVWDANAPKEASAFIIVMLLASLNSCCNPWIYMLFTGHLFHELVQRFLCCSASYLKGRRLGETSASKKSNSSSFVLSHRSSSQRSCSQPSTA
Protocol: as §1, §2

human vasopressin (hV2) receptor, sequence (P30518 whole entry): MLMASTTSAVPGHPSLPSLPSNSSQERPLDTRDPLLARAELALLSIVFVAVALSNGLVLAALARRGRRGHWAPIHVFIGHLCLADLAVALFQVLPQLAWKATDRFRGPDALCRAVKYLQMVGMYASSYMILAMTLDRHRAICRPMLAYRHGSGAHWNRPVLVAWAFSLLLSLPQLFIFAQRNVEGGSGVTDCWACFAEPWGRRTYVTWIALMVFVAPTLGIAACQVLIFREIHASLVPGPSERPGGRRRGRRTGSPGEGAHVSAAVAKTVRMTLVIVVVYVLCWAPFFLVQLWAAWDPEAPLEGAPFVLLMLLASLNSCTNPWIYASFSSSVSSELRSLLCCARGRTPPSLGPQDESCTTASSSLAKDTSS

| EC50 [1] [nM] | Selectivity hV2/hOT [1] | EC50 (hOT receptor) [nM] | SMILES |
| --- | --- | --- | --- |
| 39.9 | 629 | 0.064 | CCc1ccc(C[C@@H]2NC(=O)CCCSC[C@@H](C(=O)N3C[C@@H](O)C[C@H]3C(=O)N[C@@H](CC(C)C)C(=O)NCC(N)=O)NC(=O)[C@H](CC(N)=O)NC(=O)[C@H](CCC(N)=O)NC(=O)[C@H]([C@@H](C)CC)NC2=O)cc1 [Compound 6] ([Phe(4-Et)]IQNC[cisHyp]LG-NH2; linker N-5 via X2) |
| 58.5 | 2217 | 0.026 | CC[C@H](C)[C@@H]1NC(=O)[C@H](Cc2ccc(O)cc2)NC(=O)CCSSC[C@@H](C(=O)N(CC(=O)N[C@@H](CC(C)C)C(=O)NCC(N)=O)Cc2ccc(F)c(F)c2)NC(=O)[C@H](CC(N)=O)NC(=O)[C@H](CCC(N)=O)NC1=O [Compound 11] ([Mpa]YIQNC[X1]LG-NH2; disulfide 1-6) |
| 102 | 2533 | 0.04 | CC[C@H](C)[C@@H]1NC(=O)[C@H](Cc2ccc(O)cc2)NC(=O)CCSSC[C@@H](C(=O)N(CCc2ccc(C)cc2)CC(=O)N[C@@H](CC(C)C)C(=O)NCC(N)=O)NC(=O)[C@H](CC(N)=O)NC(=O)[C@H](CCC(N)=O)NC1=O [Compound 15] ([Mpa]YIQNC[X4]LG-NH2; disulfide 1-6) |
| 159 | 2736 | 0.058 | CC[C@H](C)[C@@H]1NC(=O)[C@H](Cc2ccc(O)cc2)NC(=O)CCSSC[C@@H](C(=O)N(CCCc2ccccc2)CC(=O)N[C@@H](CC(C)C)C(=O)NCC(N)=O)NC(=O)[C@H](CC(N)=O)NC(=O)[C@H](CCC(N)=O)NC1=O [Compound 25] ([Mpa]YIQNC[N(3-phenylpropyl)Gly]LG-NH2; disulfide 1-6) |

Reference: patent publication US8673841B2 (Ferring B.V., priority 2008, dated 2014)
